Measured values taken from US9849099B2, “Antimicrobial compounds, compositions and methods of use thereof” (WISCONSIN ALUMNI RESEARCH FOUNDATION, priority 2014, dated 2017).
≈ marks a conversion by molar mass, not a printed value. Entries after “also recorded” stand apart in the source; their conditions may differ. Like-named read-outs stand apart in the source and are kept apart here.

What was measured:
Type in all cases: cell-based
[1] = test system: E. coli BW25113 ΔtolC; assay: MIC micro-dilution; details: Escherichia coli, LB media, 37° C., 16-18 hours
Protocol: (§1) Luria-Bertani (LB) media (10 g/L tryptone, 10 g/L NaCl, 5 g/L yeast extract, pH 7.0) was used to grow all bacterial strains, except Streptococcus pyogenes. Streptococcus pyogenes was grown in Mueller-Hinton broth containing 5% (v/v) sheep blood. All bacterial cultures were grown at 37° C. All the E. coli strains were grown while shaking at 200 rpm, while clinical pathogens were incubated without shaking.
(§2) The MIC of all the strains was determined in LB media except Streptococcus pyogenes, which was grown in Mueller-Hinton media containing 5% (v/v) sheep blood. The micro-dilution method was utilized in 96-well clear flat-bottom plates (100 μL/well) according to the CLSI guidelines. All strains were grown at 37° C. for 16-18 hours in presence of various concentrations of compound. The MIC was determined by a visual inspection and experiments were performed in triplicate.

[2] = test system: E. coli BW25113; assay: MIC micro-dilution; details: Escherichia coli, LB media, 37° C., 16-18 hours
Protocol: as §1, §2

[3] = test system: Edwardsiella tarda; assay: MIC micro-dilution
Protocol: as §1, §2

[4] = test system: Morganella morganii; assay: MIC micro-dilution
Protocol: as §1, §2

[5] = test system: Staphylococcus aureus; assay: MIC micro-dilution
Protocol: as §1, §2

[6] = test system: Shigella boydii; assay: MIC micro-dilution; details: LB media, 37° C., 16-18 hours, read-out: MIC
Protocol: as §1, §2

[7] = test system: Vibrio cholerae; assay: MIC micro-dilution
Protocol: as §1, §2

[8] = test system: Pseudomonas aeruginosa; assay: MIC micro-dilution
Protocol: as §1, §2

[9] = test system: Acinetobacter baumannii; assay: MIC micro-dilution
Protocol: as §1, §2

[10] = test system: Klebsiella pneumoniae; assay: MIC micro-dilution
Protocol: as §1, §2

[11] = test system: Salmonella typhimurium; assay: MIC micro-dilution; details: Salmonella enterica
Protocol: as §1, §2

[12] = test system: Enterobacter aerogenes; assay: MIC micro-dilution; details: Klebsiella aerogenes
Protocol: as §1, §2

[13] = test system: broad panel of human pathogens; assay: MIC against the panel of pathogens; details: panel of pathogens
Protocol: as §1, §2

[14] = test system: Bacillus subtilis 168; assay: MIC micro-dilution
Protocol: as §1, §2

[15] = LB media, 37° C., 16-18 hours, read-out: MIC
[16] = Salmonella typhimurium, LB media, 37° C., 16-18 hours, read-out: MIC
[17] = Enterobacter aerogenes, LB media, 37° C., 16-18 hours, read-out: MIC
[18] = Bacillus subtilis 168, LB media, 37° C., 16-18 hours, read-out: MIC

Structure (SMILES): NCCc1c[nH]c2ccc(O)cc12 [Compound 2]
- MIC [1]: > 51 µg/mL
- MIC ([2]; BW25113, E. coli BW25113): > 51 µg/mL

Structure (SMILES): COc1ccc2[nH]cc(CCN)c2c1 [Compound 3]
- MIC [1]: > 56 µg/mL
- MIC ([2]; BW25113, E. coli BW25113): > 56 µg/mL

Structure (SMILES): NCCc1c[nH]c2ccccc12 [Compound 4]
- MIC [1]: > 61 µg/mL
- MIC ([2]; BW25113, E. coli BW25113): > 61 µg/mL

Structure (SMILES): Cc1[nH]c2ccc(O)cc2c1CCN [Compound 5]
- MIC [1]: > 61 µg/mL
- MIC ([2]; BW25113, E. coli BW25113): > 61 µg/mL

Structure (SMILES): COc1ccc2c(CCN)c[nH]c2c1 [Compound 6]
- MIC [1]: > 61 µg/mL
- MIC ([2]; BW25113, E. coli BW25113): > 61 µg/mL

Structure (SMILES): CCCCOc1ccc2[nH]cc(CCN)c2c1 [Compound 7]
- MIC [3]: > 74 µg/mL
- MIC [4]: > 74 µg/mL
- MIC [5]: > 74 µg/mL
- MIC [6]: > 74 µg/mL
- MIC [7]: > 74 µg/mL
- MIC [8]: > 74 µg/mL
- MIC [9]: > 74 µg/mL
- MIC [10]: > 74 µg/mL
- MIC ([11]; TYPHIMURIUM): > 74 µg/mL
- MIC [12]: > 74 µg/mL
- MIC [1]: > 74 µg/mL
- MIC ([2]; BW25113, E. coli BW25113): > 74 µg/mL

Structure (SMILES): CCCCCCOc1ccc2[nH]cc(CCN)c2c1 [Compound 8]
- MIC [3]: 42 µg/mL (≈ 161 µM)
- MIC [4]: > 83 µg/mL
- MIC [5]: 42 µg/mL (≈ 161 µM)
- MIC [6]: 42 µg/mL (≈ 161 µM)
- MIC [7]: 42 µg/mL (≈ 161 µM)
- MIC [8]: > 83 µg/mL
- MIC [9]: 42 µg/mL (≈ 161 µM)
- MIC [10]: 42 µg/mL (≈ 161 µM)
- MIC ([11]; TYPHIMURIUM): 42 µg/mL (≈ 161 µM)
- MIC [12]: 42 µg/mL (≈ 161 µM)
- MIC [1]: 42 µg/mL (≈ 161 µM)
- MIC ([2]; BW25113, E. coli BW25113): 42 µg/mL (≈ 161 µM)

Structure (SMILES): CCCCCCCCCCOc1ccc2[nH]cc(CCN)c2c1 [Compound 9]
- MIC [3, 15]: 25 µg/mL (≈ 79 µM)
- MIC [4, 15]: > 101 µg/mL
- MIC [5, 15]: 6.3 µg/mL (≈ 19.9 µM)
- MIC [6]: 3.2 µg/mL (≈ 10.1 µM)
- MIC [7]: 6.3 µg/mL (≈ 19.9 µM)
- MIC [8, 15]: > 101 µg/mL
- MIC [9, 15]: 6.3 µg/mL (≈ 19.9 µM)
- MIC [10, 15]: 6.3 µg/mL (≈ 19.9 µM)
- MIC [11, 16]: 6.3 µg/mL (≈ 19.9 µM)
- MIC [12, 17]: 13 µg/mL (≈ 41.1 µM)
- MIC [1]: 3.2 µg/mL (≈ 10.1 µM)
- MIC ([2]; E. coli BW25113, read-out: MIC): 6.3 µg/mL (≈ 19.9 µM)
- MICs compared with Compound 1 [13]: either the same or 2-fold different from 1

Structure (SMILES): CC(C)CCCC(C)CCOc1ccc2[nH]cc(CCN)c2c1 (centres unmarked) [Compound 10]
- MIC [3, 15]: 25 µg/mL (≈ 79 µM)
- MIC [4, 15]: > 101 µg/mL
- MIC [5, 15]: 6.3 µg/mL (≈ 19.9 µM)
- MIC [6]: 6.3 µg/mL (≈ 19.9 µM)
- MIC [7]: 6.3 µg/mL (≈ 19.9 µM)
- MIC [8, 15]: 25 µg/mL (≈ 79 µM)
- MIC [9, 15]: 13 µg/mL (≈ 41.1 µM)
- MIC [10, 15]: 13 µg/mL (≈ 41.1 µM)
- MIC [11, 16]: 6.3 µg/mL (≈ 19.9 µM)
- MIC [12, 17]: 13 µg/mL (≈ 41.1 µM)
- MIC [1]: 3.2 µg/mL (≈ 10.1 µM)
- MIC ([2]; E. coli BW25113, read-out: MIC): 13 µg/mL (≈ 41.1 µM)
- MICs compared with Compound 1 [13]: either the same or 2× different from Compound 1; also recorded: either the same or 2-fold different from 1

Structure (SMILES): NCCc1c[nH]c2ccc(OCCCCCCCc3ccccc3)cc12 [Compound 11]
- MIC [3, 15]: 28 µg/mL (≈ 79.9 µM)
- MIC [4, 15]: > 112 µg/mL
- MIC [5, 15]: 3.5 µg/mL (≈ 9.99 µM)
- MIC [6]: 7 µg/mL (≈ 20 µM)
- MIC [7]: 7 µg/mL (≈ 20 µM)
- MIC [8, 15]: 56 µg/mL (≈ 160 µM)
- MIC [9, 15]: 7 µg/mL (≈ 20 µM)
- MIC [10, 15]: 7 µg/mL (≈ 20 µM)
- MIC [11, 16]: 7 µg/mL (≈ 20 µM)
- MIC [12, 17]: 14 µg/mL (≈ 39.9 µM)
- MIC [1]: 1.8 µg/mL (≈ 5.14 µM)
- MIC ([2]; E. coli BW25113, read-out: MIC): 14 µg/mL (≈ 39.9 µM)
- MICs compared with Compound 1 [13]: either the same or 2× different from Compound 1; also recorded: either the same or 2-fold different from 1

Structure (SMILES): CCCCCCCCCCCCCCCOc1ccc2[nH]cc(CCN)c2c1 [Compound 12]
- MIC [3]: > 124 µg/mL
- MIC [4]: > 124 µg/mL
- MIC [5]: > 124 µg/mL
- MIC [6]: > 124 µg/mL
- MIC [7]: > 124 µg/mL
- MIC [8]: > 124 µg/mL
- MIC [9]: > 124 µg/mL
- MIC [10]: > 124 µg/mL
- MIC ([11]; TYPHIMURIUM): > 124 µg/mL
- MIC [12]: > 124 µg/mL
- MIC [1]: > 124 µg/mL
- MIC ([2]; BW25113, E. coli BW25113): > 124 µg/mL

Structure (SMILES): CCCCCCCCCOc1ccc2[nH]cc(CCNC(=O)OC(C)C)c2c1 [Compound 13]
- MIC [3, 15]: > 130 µg/mL
- MIC [4, 15]: > 130 µg/mL
- MIC [5, 15]: > 130 µg/mL
- MIC [6]: > 130 µg/mL
- MIC [7]: > 130 µg/mL
- MIC [8, 15]: > 130 µg/mL
- MIC [9, 15]: > 130 µg/mL
- MIC [10, 15]: > 130 µg/mL
- MIC [14, 18]: > 130 µg/mL
- MIC [11, 16]: > 130 µg/mL
- MIC [12, 17]: > 130 µg/mL
- MIC [1]: > 130 µg/mL
- MIC ([2]; E. coli BW25113, read-out: MIC): > 130 µg/mL

Structure (SMILES): CCCCCCCCCOc1ccc2[nH]ccc2c1 [Compound 14]
- MIC [3, 15]: > 83 µg/mL
- MIC [4, 15]: > 83 µg/mL
- MIC [5, 15]: > 83 µg/mL
- MIC [6]: > 83 µg/mL
- MIC [7]: > 83 µg/mL
- MIC [8, 15]: > 83 µg/mL
- MIC [9, 15]: > 83 µg/mL
- MIC [10, 15]: > 83 µg/mL
- MIC [14, 18]: > 83 µg/mL
- MIC [11, 16]: > 83 µg/mL
- MIC [12, 17]: > 83 µg/mL
- MIC [1]: > 83 µg/mL
- MIC ([2]; E. coli BW25113, read-out: MIC): > 83 µg/mL

Structure (SMILES): CCCCCCCCCOc1ccc2[nH]cc(CC[N+](C)(C)C)c2c1 [Compound 15]
- MIC [3]: 26 µg/mL
- MIC [4]: > 104 µg/mL
- MIC [5]: 6.5 µg/mL
- MIC [6]: 26 µg/mL
- MIC [7]: > 104 µg/mL
- MIC [8]: 52 µg/mL
- MIC [9]: 52 µg/mL
- MIC [10]: 26 µg/mL
- MIC ([14]; Bacillus subtilis, 168): 52 µg/mL
- MIC ([11]; TYPHIMURIUM): 26 µg/mL
- MIC [12]: 52 µg/mL
- MIC [1]: 6.5 µg/mL
- MIC ([2]; BW25113, E. coli BW25113): 52 µg/mL

Structure (SMILES): CCCCCCCCCOc1cccc(CCN)c1 [Compound 16]
- MIC [3]: 5.3 µg/mL (≈ 20.1 µM)
- MIC [4]: 11 µg/mL (≈ 41.8 µM)
- MIC [5]: 5.3 µg/mL (≈ 20.1 µM)
- MIC [6]: 5.3 µg/mL (≈ 20.1 µM)
- MIC [7]: 5.3 µg/mL (≈ 20.1 µM)
- MIC [8]: 21 µg/mL (≈ 79.7 µM)
- MIC [9]: 5.3 µg/mL (≈ 20.1 µM)
- MIC [10]: 5.3 µg/mL (≈ 20.1 µM)
- MIC ([14]; Bacillus subtilis, 168): 0.66 µg/mL (≈ 2.51 µM)
- MIC ([11]; TYPHIMURIUM): 5.3 µg/mL (≈ 20.1 µM)
- MIC [12]: 5.3 µg/mL (≈ 20.1 µM)
- MIC [1]: 2.6 µg/mL (≈ 9.87 µM)
- MIC ([2]; BW25113, E. coli BW25113): 5.3 µg/mL (≈ 20.1 µM)

Structure (SMILES): CCCCCCCCCOc1ccc(CCN)cc1 [Compound 17]
- MIC ([14]; Bacillus subtilis, 168): 0.66 µg/mL (≈ 2.51 µM)
- MIC [1]: 1.3 µg/mL (≈ 4.93 µM)
- MIC ([2]; BW25113, E. coli BW25113): 5.3 µg/mL (≈ 20.1 µM)

Structure (SMILES): CCCCCCCCCOc1cccc(CN)c1 [Compound 18]
- MIC [14, 18]: 4.7 µg/mL (≈ 18.8 µM)
- MIC [1]: 4.7 µg/mL (≈ 18.8 µM)
- MIC ([2]; E. coli BW25113, read-out: MIC): 9.4 µg/mL (≈ 37.7 µM)

Structure (SMILES): CCCCCCCCCOc1cccc(N)c1 [Compound 19]
- MIC [14, 18]: 40 µg/mL (≈ 170 µM)
- MIC [1]: 10 µg/mL (≈ 42.5 µM)
- MIC ([2]; E. coli BW25113, read-out: MIC): > 40 µg/mL
